Data on 15 molecules can be found in patent EP0102564A2, “Method for the removal of toxins bound to protein or lipid from blood or blood fractions, and use of certain compounds as liberating agents” (FRAUNHOFER-GESELLSCHAFT ZUR FÖRDERUNG DER ANGEWANDTEN …, priority 1982, dated 1984).

Read-outs that look alike come from different tables or passages of the source.

For series [1], the system named is Plasmaproteine. The note with it: cited from earlier work.
For series [2], the target named is T1, Ethanthiol-Protein-Komplex (BSA) (Bos taurus, UniProt P02769).
T1 construct: Rinderserumalbumin (BSA, bovine serum albumin); purchased Behring, Marburg
T1 sequence (P02769 25-607): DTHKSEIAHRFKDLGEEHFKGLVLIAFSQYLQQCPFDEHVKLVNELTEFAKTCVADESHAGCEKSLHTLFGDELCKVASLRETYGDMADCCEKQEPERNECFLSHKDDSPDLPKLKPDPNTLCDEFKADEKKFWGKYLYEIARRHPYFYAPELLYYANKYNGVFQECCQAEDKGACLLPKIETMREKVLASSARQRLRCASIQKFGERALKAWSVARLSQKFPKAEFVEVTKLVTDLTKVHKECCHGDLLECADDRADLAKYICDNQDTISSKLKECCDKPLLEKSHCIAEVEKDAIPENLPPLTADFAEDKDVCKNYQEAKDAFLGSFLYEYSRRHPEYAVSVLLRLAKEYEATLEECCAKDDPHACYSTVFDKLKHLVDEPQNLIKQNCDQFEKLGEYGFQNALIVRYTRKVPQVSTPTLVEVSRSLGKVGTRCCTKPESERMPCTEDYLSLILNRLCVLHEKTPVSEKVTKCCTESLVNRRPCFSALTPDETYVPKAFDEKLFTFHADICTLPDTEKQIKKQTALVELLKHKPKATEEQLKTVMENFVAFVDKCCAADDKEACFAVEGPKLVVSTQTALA
Briefly: Variation of the uncoupler amount, release of ET from BSA. The note with it: compared with reduced Glutathion. Set-up: species or system Rind. How it is done:
Um die Wirksamkeit der beiden Entkoppler vergleichen zu können, wurden Proben mit 40 mg BSA auf 1 ml ET-Lösung (2170/umol ET/1 PBS) über Nacht bei 37 °C inkubiert. Nach dieser Zeit betrug die freie Thiolkonzentration ca. 2 bis 5% der Ausgangskonzentration. Nach der Zugabe unterschiedlicher Entkoppler-Mengen wurde die Freisetzung des ET gaschromatographisch verfolgt. Fig. 3 und 4 zeigen den Verlauf der ET-Konzentration als Funktion der Zeit. Die Zugabe des Entkopplers erfolgte zum Zeitpunkt t = o. Der Parameter K entspricht dem molaren Verhältnis zwischen eingesetzter Entkoppler-Menge und eingesetzter ET-Thiolmenge.

The target in series [3] is T2, BSA (Bos taurus, UniProt P02769). Description: Adsorption of protein-bound ET on activated carbon without prior release, BSA. Also noted: species or system Rind. Particulars: K = 110, added after removal of carbon; BSA and HSA samples. How it is done: (§1) Um die Leistungsfähigkeit der ET-Entfernung nach vorhergehender Abkopplung von Protein beurteilen zu können, wurde die Adsorptionskinetik ohneverwendung eines Entkopplers untersucht. Dazu wurden im Batchversuch Proben, die 40 mg BSA oder HSA auf 1 ml ET-Lösung (2170/umol ET/ 1 PBS) enthielten, über Nacht auf einem Rollermixer inkubiert. Nach Einstellen des Gleichgewichts wurde am nächsten Tag die Konzentration an ET bestimmt. Sie lag für BSA bei ca. 11% und für HSA bei ca. 21% der Ausgangskonzentration. Zu beiden Proben wurden 30 mg SCII (vorher in PBS entgast) zugegeben und die freie ET-Konzentration fortlaufend gemessen. Nach 45 Minuten wurden die AK entfernt und Cystein zugegeben. […] Fig. 6 zeigt den Verlauf der ET-Konzentration. Die Probe, die HSA enthielt, wies eine Abnahme der ET-Menge durch Adsorption von 78% auf, die Probe mit BSA lediglich von ca. 68%. Dieses Ergebnis deckt sich mit der Beobachtung,daß ET stärker an BSA gebunden ist als an HSA. Damit konnte gezeigt werden, daß proteingebundenes ET durch Aktivkohle entfernt werden kann. Die Restkonzentration liegt jedoch relativ hoch, und die Kinetik ist langsam.
T2 sequence (P02769 25-607): as above

For series [4], the target named is T2, BSA. Briefly: Adsorption of ET on activated carbon after prior release by uncoupler, BSA, batch. Set-up: species or system Rind. How it is done:
In dieser Versuchsreihe wurde das Zusammenwirken aller bisher betrachteten Parameter im Batch erprobt. 1 ml ET-Lösung (2170/umol ET/1 PBS) wurden für ca. 18 Stunden bei 37°C mit 40 mg BSA inkubiert. Nach dieser Zeit beträgt die ET-Konzentration lediglich 5% des Ausgangswerts (d.h. 95% des ET sind an das BSA gebunden). Nun erfolgte die Zugabe von 150/ul Entkoppler (K-Cystein = 115, Fig. 7, Kurve a; K-Glutathion = 30, Fig. 8, Kurve a). Die Abkopplung des ET wird verfolgt, bis keine Zunahme der ET-Konzentration mehr eintritt. Bei der Verwendung von Cystein erfolgt die Freisetzung schneller als bei Glutathion.
Nun wurden 30 mg SCII (vorher in PBS entgast) zu den Proben hinzugegeben. Die ET-Konzentration nimmt nun rasch ab. Die gesamte Restmenge beträgt nach 45 Minuten nur noch ca. 5% des Anfangswerts. Es wurden also 95% der vorgegebenen Thiolmenge von 30 mg AK entfernt.
In einer weiteren Versuchsreihe wurde untersucht, ob der Entkoppler auch wirksam ist, wenn er zuvor an Aktivkohle adsorbiert wurde. Dazu wurden 30 mg SCII mit den Entkoppler-Lösungen 2 Stunden inkubiert. Diese vorbeladene Kohle wurde dann statt der Entkoppler-Lösung eingesetzt. Fig. 7 und 8 (jeweils Kurve b) zeigen den Abkopplungsvorgang. Die freie ET-Konzentration steigt in beiden Fällen nicht auf den Anfangswert an. Dem Freisetzungsprozeß ist eine Adsorption überlagert. Sie liegt bei AK-Glutathion um ca. 50% tiefer als bei AK-Cystein. Nach Zugabe von 30 mg AK (in PBS entgast) fällt die ET-Konzentration schnell ab. Nach 45 Minuten beträgt die adsorbierte Menge bei Verwendung von Cystein ca. 97%, bei Verwendung von Glutathion ca. 95%.

For series [5], the system named is Plasma. Description: Removal of protein-bound ET from plasma. Particulars: for Restkonzentration an ET nach Adsorption an AK mit vorheriger Freisetzung durch Entkoppler: 30 mg AK, 45 min, relative to initial value.
The target of series [6] is T3, HSA (Homo sapiens, UniProt P02768).
T3 construct: Humanserumalbumin (HSA); purchased Behring, Marburg or Sigma, St. Louis (fatty-acid-free)
T3 sequence (P02768 25-609 limits assumed): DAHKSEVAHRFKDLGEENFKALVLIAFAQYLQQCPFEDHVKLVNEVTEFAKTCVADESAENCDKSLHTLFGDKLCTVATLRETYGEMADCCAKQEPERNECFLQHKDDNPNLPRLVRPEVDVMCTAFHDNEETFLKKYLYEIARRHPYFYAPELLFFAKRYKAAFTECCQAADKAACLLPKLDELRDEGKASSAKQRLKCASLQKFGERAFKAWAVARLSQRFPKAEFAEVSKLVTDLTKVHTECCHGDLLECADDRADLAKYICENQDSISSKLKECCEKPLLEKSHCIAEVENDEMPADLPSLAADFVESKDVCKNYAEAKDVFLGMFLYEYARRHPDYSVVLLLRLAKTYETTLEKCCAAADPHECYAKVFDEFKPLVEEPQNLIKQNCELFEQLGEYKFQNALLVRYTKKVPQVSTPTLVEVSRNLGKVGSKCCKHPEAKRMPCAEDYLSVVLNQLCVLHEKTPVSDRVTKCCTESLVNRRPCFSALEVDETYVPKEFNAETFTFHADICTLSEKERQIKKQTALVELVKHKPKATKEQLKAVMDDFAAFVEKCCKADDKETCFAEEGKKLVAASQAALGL
Briefly: Binding of Ethanthiol to HSA, gas chromatography (headspace). The format is in vitro ADME. Particulars: 40 mg HSA per 1 ml ET solution, overnight, equilibrium. How it is done: as §1

In series [7] the target is T4, Fibrinogen (Bos taurus, UniProt P02672+P02676+P12799).
T4 sequence (P02672 20-615): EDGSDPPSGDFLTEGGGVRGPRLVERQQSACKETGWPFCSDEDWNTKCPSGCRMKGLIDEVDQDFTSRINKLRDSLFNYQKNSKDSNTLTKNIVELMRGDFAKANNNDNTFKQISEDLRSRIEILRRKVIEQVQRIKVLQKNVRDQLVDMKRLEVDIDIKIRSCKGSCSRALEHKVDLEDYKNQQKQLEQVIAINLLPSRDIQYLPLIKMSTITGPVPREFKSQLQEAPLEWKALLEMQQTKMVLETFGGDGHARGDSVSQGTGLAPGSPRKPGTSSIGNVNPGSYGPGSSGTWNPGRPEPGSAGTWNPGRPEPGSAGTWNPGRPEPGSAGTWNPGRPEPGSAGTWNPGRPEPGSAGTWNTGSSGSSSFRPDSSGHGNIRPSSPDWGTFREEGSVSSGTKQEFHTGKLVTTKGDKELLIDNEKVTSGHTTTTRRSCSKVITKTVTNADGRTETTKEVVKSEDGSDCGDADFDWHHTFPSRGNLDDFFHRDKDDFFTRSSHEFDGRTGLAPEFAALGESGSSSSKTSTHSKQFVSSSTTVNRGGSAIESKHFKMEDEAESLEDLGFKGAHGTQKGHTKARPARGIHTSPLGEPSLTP
T4 sequence (P02676 1-468): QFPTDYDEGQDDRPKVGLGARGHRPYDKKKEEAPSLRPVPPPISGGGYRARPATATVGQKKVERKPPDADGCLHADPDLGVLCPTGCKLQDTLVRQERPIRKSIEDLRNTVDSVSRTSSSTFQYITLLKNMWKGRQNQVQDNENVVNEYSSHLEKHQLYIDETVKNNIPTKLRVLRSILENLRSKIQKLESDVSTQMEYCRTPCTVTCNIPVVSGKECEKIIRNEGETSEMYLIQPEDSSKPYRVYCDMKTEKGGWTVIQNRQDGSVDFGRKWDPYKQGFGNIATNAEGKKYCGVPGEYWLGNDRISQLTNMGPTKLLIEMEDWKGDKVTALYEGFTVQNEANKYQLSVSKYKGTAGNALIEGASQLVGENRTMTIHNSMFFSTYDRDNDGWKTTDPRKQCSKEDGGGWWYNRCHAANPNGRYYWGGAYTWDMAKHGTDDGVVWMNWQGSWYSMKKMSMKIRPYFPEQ
T4 sequence (P12799 25-444): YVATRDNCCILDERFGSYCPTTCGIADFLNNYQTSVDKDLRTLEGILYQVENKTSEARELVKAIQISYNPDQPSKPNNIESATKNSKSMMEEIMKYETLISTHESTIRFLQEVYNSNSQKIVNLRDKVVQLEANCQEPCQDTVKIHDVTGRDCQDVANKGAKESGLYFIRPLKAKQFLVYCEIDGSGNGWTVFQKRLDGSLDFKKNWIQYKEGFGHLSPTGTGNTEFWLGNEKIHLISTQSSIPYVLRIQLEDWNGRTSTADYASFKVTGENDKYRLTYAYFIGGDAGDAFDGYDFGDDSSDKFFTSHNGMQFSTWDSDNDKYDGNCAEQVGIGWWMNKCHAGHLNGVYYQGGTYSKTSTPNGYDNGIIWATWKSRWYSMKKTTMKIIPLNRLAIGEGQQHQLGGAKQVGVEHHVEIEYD

Series [8] concerns the target T2, BSA. Briefly: in vitro. Particulars: bovine.
Series [9] in a line: Removal of protein-bound ET from plasma.
In series [10] the target is T2, BSA. Description: Binding of Ethanthiol to BSA, gas chromatography (headspace).
Series [11] relates to Methotrexat, Proteinbindung. Description: Uncoupling of toxin from protein binding, molar ratio K (Table III), toxin Methotrexat. The note with it: molar ratio of uncoupler to toxin. The source says: Werte können Tabelle III entnommen werden.
Series [12] addresses T3, HSA. Description: Binding study of toxins to protein, ultrafiltration and photometry, HSA. The class given is in vitro ADME. The note with it: HSA 80 mg in 2 ml PBS, depends on initial concentration, read-out: MTX in ungebundener Form. How it is done: Es wurden beide Verfahren der Druckerzeugung (Druckluft, Zentrifugation) erprobt. Dazu wurden die Proben (2 ml) in die Trennzelle gefüllt und ein Teil (150fu1) abgetrennt. Durch diesen kleinen Probenverlust wird das Gleichgewicht der Probe nur schwach gestört. Die Konzentrationen der einzelnen Substanzen (Toxin und Protein) wurden photometrisch mit einem Mehrkomponentenanalyseprogramm ermittelt. Beide Meßverfahren führten zu den gleichen Ergebnissen. Bevorzugt ist das Verfahren der Ultrafiltration mit Hilfe der Zentrifugation. Dieses Verfahren erlaubt einen höheren Probendurchsatz als das Verfahren mit Druckluft. Die verwendeten Proteinkonzentrationen waren physiologisch (Albumin 40 g/l; Fibrinogen 4 g/l). Aus den bekannten Anfangskonzentrationen und der gemessenen Konzentration an freiem ungebundenen Toxin lassen sich die Bindungsparameter sowie die Adsorptionsisothermen punktweise ermitteln.
Das freie ungebundene Toxin wurde durch Ultrafiltration gewonnen und die Konzentration photometrisch mit Hilfe der Mehrkomponentenanalyse bestimmt. Die Ausgangsproben enthielten 80 mg Protein und wurden mit PBS auf 2 ml aufgefüllt (physiologische Konzentration). Die Toxinmenge wurde zwischen 100 und 1GOO/ug variiert. Es zeigten sich deutliche Unterschiede zwischen BSA und HSA.

The target in series [13] is T2, BSA. Briefly: Binding study of toxins to protein, ultrafiltration and photometry, BSA. Particulars: bovine, bsa in pbs.
For series [14], the target named is T2, BSA. Briefly: Competitive adsorption of fatty acids and Ethanthiol on BSA. Also noted: species or system Rind. Particulars: rising oleic acid concentration. The text has this: Aus der Literatur ist bekannt, daß Fettsäuren eine starke Proteinbindung aufweisen. Proben, die Thiol und ölsäure (einfach ungesättigte Fettsäure) enthielten, zeigten abnehmende Thioladsorption bei steigender ölsäurekonzentration.

Regarding `CCN(CC)CCCC(C)Nc1ccnc2cc(Cl)ccc12` (racemic) [Chloroquin], the “Bindung von Pharmaka an Plasmaproteine” value in series [1] (plasma) is given as 55%.

`CN(C)CCCN1c2ccccc2Sc2ccc(Cl)cc21` [Chlorpromazin]: in series [1] (plasma), the “Bindung von Pharmaka an Plasmaproteine” value is given as 90%.

Take `O=c1ccc2ccccc2o1` [Coumarin]: in [1] (plasma), the “Bindung von Pharmaka an Plasmaproteine” value was 99%.

Turning to `N[C@@H](CS)C(=O)O` [Cystein], in series [2], the “K-Werte für den gleichen Freisetzungsgrad an ET” value was “höher”. Besides, the “Freisetzung des noch vorhandenen Ethanthiols” value in [3] is “totale Freisetzung”. Also, the “Freisetzung, Geschwindigkeit im Vergleich zu Glutathion” value is “schneller” in series [4] (K-Cystein = 115, K-Glutathion = 30) and “schnellere Freisetzung” in [5]. Moreover, the “adsorbierte Menge nach 45 Minuten” value in series [4] (uncoupler pre-adsorbed on SCII, then 30 mg AK) was “ca. 97%”. Also, the figures for the “Restkonzentration an ET nach Adsorption an AK mit vorheriger Freisetzung durch Entkoppler” value in series [5] (uncoupler added directly) and in [5] (uncoupler pre-adsorbed on AK) were 15% and 4%, respectively.

Regarding `CC1=NS(=O)(=O)c2cc(Cl)ccc2N1` [Diazoxid], in series [1] (plasma), the “Bindung von Pharmaka an Plasmaproteine” value is 90%.

Consider `CCS` [Ethanthiol], for which the “Konzentration an ET, % der Ausgangskonzentration” value in series [6] was “ca. 21%”. Moreover, the “von Fibrinogen gebundene molare Menge von Toxin im Vergleich zu Albumin” value in series [7] was “annähernd die gleiche molare Menge”. In series [8] (ET-Konzentration, % des Ausgangswerts), this molecule registered a fraction unbound at 18 h, 2170 µM of 0.05. In addition, the fraction unbound in series [8] (Ethanthiol an BSA gebunden) is approximately 0.05; in [8] (Konzentration an ET, % der Ausgangskonzentration), approximately 0.11; in series [8] (freie Thiolkonzentration, % der Ausgangskonzentration), 0.02 to 0.05. Moreover, the fraction unbound at 20 h, 2170 µM in [9] was 0.33. In addition, the “Adsorption des Ethanthiols an BSA bis zur Nachweisgrenze dauert” value in [10] was not above 6 Stunden. Also, the “Zeit, nach der 50% der ET-Menge gebunden sind” value in series [10] (40 mg BSA, 1 ml ET solution 2170 µmol/l, 37°C) is “ca. 3 Stunden”.

As to `Nc1nc2ncc(CNc3ccc(C(=O)N[C@@H](CCC(=O)O)C(=O)O)cc3)nc2c(=O)[nH]1` [Folsäure], in [11], the K-Werte result was “ca. 5”.

Regarding `CN(C)CCCN1c2ccccc2CCc2ccccc21` [Imipramin], in series [1] (plasma), the “Bindung von Pharmaka an Plasmaproteine” value was 90%.

`NNC(=O)c1ccncc1` [Isoniazid]: the “Bindung von Pharmaka an Plasmaproteine” value in series [1] is given as 100%.

Take `Nc1nc2c(c(=O)[nH]1)N(C=O)C(CNc1ccc(C(=O)N[C@@H](CCC(=O)O)C(=O)O)cc1)CN2` (stereo partly drawn) [Leucoverin]: the K-Werte result in series [11] was “ca. 5”.

For `CN(Cc1cnc2nc(N)nc(N)c2n1)c1ccc(C(=O)N[C@@H](CCC(=O)O)C(=O)O)cc1` [Methotrexat], the fraction unbound in [12] lay in the range of 0.3 to 0.4; in series [13], 0.1 to 0.25. In addition, the “Bindung von Pharmaka an Plasmaproteine” value in series [1] (plasma) is recorded as 80%.

As for `O=C(O)c1ccccc1O` [Salicylsäure], the K-Werte entry in [11] was “ca. 5”. Further, in series [1] (plasma), the “Bindung von Pharmaka an Plasmaproteine” value is 80%.

For the molecule `O=C1OC(c2ccc(O)c(S(=O)(=O)O)c2)(c2ccc(O)c(S(=O)(=O)O)c2)c2c(Br)c(Br)c(Br)c(Br)c21` [Sulfobromphthalein], in series [11], the K-Werte result is “ca. 5”.

Consider `CCCCCCCC/C=C\CCCCCCCC(=O)O` [ölsäure], for which the “Bindung von Ethanthiol an BSA durch Zugabe von ölsäure” value in series [14] is recorded as “behindert oder gar blockiert”.

Take Phenylbutazon: the K-Werte result in series [11] is listed as “ca. 2”. The “Bindung von Pharmaka an Plasmaproteine” value in series [1] (plasma) was 98%.
